Data set [1] can be described thus: Spectroscopic properties of the BDM library (absorbance and emission maxima). In kind it is physicochemical.
The nature of data set [2]: Quantum yield measurements. The data set is classed as physicochemical. Conditions: referred to Rhodamine B in EtOH, excitation 510 nm, emission integrated 540-800 nm. The method in brief:
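Integrated fluorescence emission from 540 to 800 nm was referenced to Rhodamine B in EtOH (Φ=0.70) after excitation at 510 nm. Quantum yield was calculated with correction for solvent refractive index and absorbance at the excitation wavelength.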

The test system of data set [3] is human IgG. Nature of the data set: Screening the BDM library: fluorescence response against proteins and peptides. The data set is classed as binding. To be noted: 10 μM dye. The procedure:
Fluorescence intensities were measured using a Spectra Max Gemini XSF plate reader in a 384-well plate. BDM compounds were dissolved to a final concentration of 10 μM (20 mM HEPES buffer, pH 7.4, containing 1% DMSO) and incubated with different proteins and peptides at different serial concentrations in 20 mM HEPES buffer (pH 7.4) (FIG. 1a). The excitation wavelength was set at 510 nm, and the emission spectra were recorded from 560 to 700 nm. Fluorescence fold increase ratios were determined by referring the maximum fluorescence intensity emission of BDM compounds in the presence of the screened proteins and peptides to the maximum fluorescence intensity emission of BDM compounds in 20 mM HEPES buffer (pH 7.4) (FIG. 1b).

Data set [4] deals with human IgG. The data set is described as follows: Surface plasmon resonance on immobilized immunoglobulin chip. Conditions: 25° C., read-out: KD (SPR, steady-state model). The data set is classed as binding. An excerpt: The following experiments were aimed at determining the dissociation constant of the interaction between Ig Orange and human IgG. Surface Plasmon Resonance (SPR) has been extensively used to measure the binding constants between small molecules and biopolymers, 25 and we modified human IgG with biotin so that it could be immobilized on a neutravidin-coated sensor chip. Upon immobilization of the biotinylated protein on a neutravidin-coated sensor chip CM7, we performed Ig Orange titrations in duplicate with increasing concentrations of the small molecule.
Human IgG (5.0 mg, 0.033 μmol) and biotin-OSu (0.11 mg, 0.33 μmol) were dissolved in 0.1 M NaHCO3 (pH 8.5) and shaken for 1 h at 25° C. […] The fluorescence response of Ig Orange to IgG and biotinylated IgG was compared (FIG. 5). The concentration of biotinylated IgG before fluorescence and SPR experiments was determined by Bradford assay. […] Job Plot Analysis: Ig Orange (final concentrations: 0, 1.6, 3.2, 4.8, 6.4, 8.0, 9.6, 11.2, 12.8, 14.4, 16 μM) and human IgG (final concentrations: 16, 14.4, 12.8, 11.2, 9.6, 8.0, 6.4, 4.8, 3.2, 1.6, 0 μM) were incubated in PBS buffer (pH 7.3) containing 1% DMSO, and the fluorescence intensities of the different solutions were recorded on a SpectraMax M2 plate reader (excitation: 530 nm; emission: 590 nm). […]
(SPR reads the build-up and loss of mass on a sensor chip optically.)

The target in data set [5] is human IgG. Nature of the data set: Fluorescence-based fractional saturation curve. Conditions: 10 μM dye, 20 mM HEPES pH 7.4, exc 530 nm, em 590 nm; read-out: dissociation constant Kd (fluorescence binding saturation curve). The method, then: Ig Orange (10 μM) was incubated with different concentrations of human IgG in 20 mM HEPES buffer (pH 7.4) and the fluorescence intensities were recorded on a SpectraMax M2 plate reader (excitation: 530 nm; emission: 590 nm) (FIG. 9).

Data set [6] concerns Fab and Fc fragments of human IgG1. The data set is described as follows: Fluorescence increase with Fab and Fc fragments. The data set is classed as binding. To be noted: Fab vs Fc fragments of human monoclonal IgG1. The method, then:
FIGS. 6a and 6b show binding sensorgrams of Ig Orange (0.07, 0.21, 0.62, 1.86, 5.57 and 16.70 μM) upon injection across an immobilized immunoglobulin chip, which were fit using the equilibrium responses of a steady-state model. […] Values are represented as means (n=3) and error bars as standard deviations.
In order to identify the region of human IgG to which Ig Orange binds, we evaluated the fluorescence response of Ig Orange in the presence of human polyclonal IgG and monoclonal IgG1, the most abundant subtype. […] To confirm this observation and determine the stoichiometry of the complex between Ig Orange and the full immunoglobulin, we analyzed the interaction by means of a Job plot. A maximum fluorescence increase was detected for a 2:1 Ig Orange:immunoglobulin ratio, which supported our observation that the preferred binding region of Ig Orange corresponded to the Fab fragments of the immunoglobulin (FIG. 7b). […] With this first adaptation of the BODIPY scaffold to a solid-phase approach we accelerated the development of alkylamino BODIPY-based fluorescent probes, being Ig Orange the first immunoglobulin fluorescent sensor.

Data set [7] deals with human IgG. Nature of the data set: Structure-fluorescence relationships: Ig Orange vs BD-69 with human IgG. In kind it is binding. Conditions: 10 μM each, 20 mM HEPES pH 7.4. The method, then: Ig Orange (BDM-69) (10 μM) and BD-69 (10 μM) were incubated with different concentrations of human IgG in 20 mM HEPES buffer (pH 7.4) and the fluorescence intensities were recorded on a SpectraMax M2 plate reader (excitation: 530 nm; emission: 590 nm), as shown in FIG. 7a. Values are represented as means (n=3) of the fluorescence fold increase after incubation with the protein.

From patent publication US9267949B2, “Alkylamino BODIPY dyes as selective fluorescent probes for proteins and mouse embryonic stem cells” (National University of Singapore, priority 2011, dated 2016) come the findings set out here.

On to `CC1=CC(/C=C/c2ccc(/C=C/c3ccccc3)cc2)=[N+]2C1=C(CCN)c1cccn1[B-]2(F)F` [BDM-69], for which the “λmax (ABS)” value in data set [1] came out at 574 nm. The “λmax (EM)” value in data set [1] is on record as 594 nm. Also, in data set [2], the “φ (quantum yield)” value is on record as 0.32. For the same compound, in the data set with human IgG [3] (20 mM HEPES buffer pH 7.4), the “turn-on fluorescence increase in the presence of human IgG” value came out at 75 fold. In the data set on human IgG [3] (20 mM HEPES pH 7.4, exc 510 nm), the “selectivity profile against proteins and peptides” value is “best selectivity profile among the whole library”. In addition, the Kd at human IgG [4] was found to be 71.7 ± 0.6 µM; at human IgG [5], 14.1 ± 0.9 µM. Also, the “preferred binding region of the immunoglobulin” value in data set [6] is listed as “preferred binding to the Fab region”. In addition, the “higher fluorescence increase of Ig Orange relative to BD-69 vs. human IgG” value in the data set with human IgG [7] worked out at 15 fold.
